From patent publication US20040186077A1, “Novel heteroaryl phosphonates as cardioprotective agents” (Medicure International Inc., priority 2003, published 2004)

Test system: Male Wistar rats
Experiment: Ischemia reperfusion: LAD occlusion and reperfusion, infarct size as percentage of AAR
Type: in vivo
Conditions: 32 mg/kg i.v. bolus 5 min before ischemia; regional myocardial ischemia 25 min, reperfusion 2 h; P=0.047 unpaired t-test; vehicle infarct size 56±3% of the AAR
Method: Male Wistar rats (200-300 g, Tuck, Rayleigh, Essex, U.K.) were anesthetised with thiopentone sodium (Intraval®, 120 mg/kg i.p.; Rhone-Merrieux, Essex, U.K.). The rats were tracheotomised, intubated and ventilated with a Harvard ventilator (70 strokes/min, tidal volume: 8-10 mL/kg, inspiratory oxygen concentration: 30%). Body temperature was maintained at 38±1° C. The right carotid artery was cannulated and connected to a pressure transducer (MLT 1050, AD Instruments Ltd, Hastings, UK) to monitor mean arterial blood pressure (MAP) and heart rate (HR), which were continuously recorded on a data acquisition system such as Powerlab® Version 4.0.4, AD Instruments, Hastings, UK. The right jugular vein was cannulated for drug administration and the administration of Evans Blue dye (at the end of the experiment). A lateral thoracotomy was performed and the heart was suspended in a temporary pericardial cradle. A snare occluder was placed around the left anterior descending coronary artery (LAD). After completion of the surgical procedure the animals were allowed to stabilise for 30 min before LAD ligation. Five minutes prior to the onset of myocardial ischemia, a bolus injection (i.v.) of either vehicle or phosphonate was administered. The coronary artery was occluded at time 0 by tightening of the occluder. […]

With `Cc1nc(-c2ccccc2)c(C(F)P(=O)(O)O)c(CO)c1O` (stereo not shown) [Compound 38, [Fluoro-(5-hydroxy-4-hydroxymethyl-6-methyl-2-phenyl-pyridin-3-yl)-methyl]-phosphonic acid] the myocardial infarct size was “reduced myocardial infarct size”.
